Laboratory results published in ChEMBL document CHEMBL1129386, “Synthesis and immunostimulating properties of lipophilic ester and ether muramyl peptide derivatives” (J Med Chem, 1996).

System: RAW264.7
Assay: Concentration of compound which increased the nitrite production in RAW 264.7 mouse monocyte-macrophage line
Format: functional, cell-based

Molecule `CC(=O)N[C@@H]1[C@@H](OC(C)C(=O)N[C@@H](C)C(=O)N[C@H](CCC(=O)N[C@@H](C)C(=O)O[C@H]2CC[C@@]3(C)C(=CC[C@H]4[C@@H]5CC[C@H]([C@H](C)CCCC(C)C)[C@@]5(C)CC[C@@H]43)C2)C(N)=O)[C@H](O)[C@@H](CO)O[C@@H]1O` (stereo partly specified) has a Concentration of 1 µM.
